From US20110124715A1, “Antiviral Oligonucleotides Having a Conserved G4 Core Sequence” (priority 1992, published 2011)
Where “and” joins values, the source holds several entries; their conditions need not be identical. Identical values can stand only once. Like-named read-outs stand apart in the source and are kept apart here. Marks after values point to notes of the source that are not given here. Strand notation (5' to 3'): a small letter for the sugar, then the base; units joined by * are phosphorothioate-linked, units joined directly phosphodiester-linked; [ ] holds rarer units or linkages, { } end groups; capitals alone tell only the bases. [I] = hypoxanthine (inosine); d = 2'-deoxy (DNA)

What was measured:
[1] = system: human T-lymphoblastoid CEM cell line
HIV-1IIIB [2] = system: HIV-1IIIB
HSV-1 (KOS) = experiment: HSV-1 infection ELISA assay; format: cell-based, herpes simplex virus
HIV-1IIIB [3] = experiment: Acute HIV infection assay (XTT, CEM cells); settings: Table 3; for IC50: inhibition of HIV
[4] = molecular target: T1, human type II phospholipase A2 (Homo sapiens, UniProt P14555); experiment: Phospholipase A2 assay, 3H-oleic acid labelled E. coli substrate; format: biochemical
T1 sequence (P14555 21-144): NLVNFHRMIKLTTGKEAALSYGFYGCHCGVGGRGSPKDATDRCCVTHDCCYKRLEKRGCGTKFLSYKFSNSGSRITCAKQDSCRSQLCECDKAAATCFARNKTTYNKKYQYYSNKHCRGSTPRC

[5] = Fraction tetramer by size exclusion chromatography; format: physicochemical; settings: Table 16; asterisk = more than one aggregate species
HIV-1 [6] = system: HIV-1
gp120 = gp120 (Human immunodeficiency virus type 1 group M subtype B, UniProt P03375); settings: read-out: dissociation constant (Kd); immobilized gp120; FIG. 16
HIV-1 [7] = settings: for inhibition of binding: 5 μM oligonucleotide
human CD44 = molecular target: T2, human CD44 (Homo sapiens, UniProt P16070); experiment: Immunofluorescent flow cytometry, anti-CD44 mAb; format: cell-based
T2 construct: endogenous in cells; host or cells: HeLa cells harboring an HIV-1 env gene

V3 loop region of gp120 = V3 loop region of gp120 (Human immunodeficiency virus type 1 group M subtype B, UniProt P03375)
CD4 [8] = molecular target: T3, CD4 (Homo sapiens, UniProt P01730); experiment: Immunofluorescent flow cytometry, anti-CD4 mAb on CEM-T4 cells; format: cell-based
HIV = format: cell-based; settings: data not shown
[9] = system: chronically infected (H9 IIIB) cell models; experiment: Chronically infected cell models; format: cell-based, human immunodeficiency virus; settings: data not shown
CD4 [10] = molecular target: T3, CD4; format: binding
CD4/gp120 interaction = CD4/gp120 interaction (Human immunodeficiency virus type 1 group M subtype B, UniProt P03375); settings: concentrations 10,000-fold above its IC50; Callahan et al.; cited from earlier work
[11] = Table 12, inosine-substituted oligonucleotides against HSV
[12] = Table 1, 50% inhibition of HSV replication relative to control infected cells

T2 sequence (P16070 21-361 isoform P16070-12 limits assumed): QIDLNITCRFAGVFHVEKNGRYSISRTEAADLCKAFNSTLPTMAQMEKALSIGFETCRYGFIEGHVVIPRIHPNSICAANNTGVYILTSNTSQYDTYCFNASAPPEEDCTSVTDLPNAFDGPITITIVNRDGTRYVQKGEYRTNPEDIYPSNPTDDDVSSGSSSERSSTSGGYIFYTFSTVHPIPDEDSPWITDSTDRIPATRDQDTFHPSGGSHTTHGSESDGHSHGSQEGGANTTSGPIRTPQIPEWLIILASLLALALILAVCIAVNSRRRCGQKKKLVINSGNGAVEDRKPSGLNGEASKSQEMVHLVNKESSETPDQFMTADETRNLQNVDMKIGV

Molecule: 4721 (CACGGGGTCG; phosphorothioate, further chemistry not given here) [compound 4721]
- TC50 [1]: 142 µM
- TI (TC50/IC50) (HIV-1IIIB [2]): 546

Molecule: 4925 (GTTGGAGACCGGNGTTGGNG; DNA, [I] at 13, 19, backbone not given here) [compound 4925]
- EC50 (HSV-1 (KOS); [11]): 1600 nM

Molecule: 5295 (GTTGGAGACCGGGNTTGGGG; DNA, [I] at 14, backbone not given here) [compound 5295]
- EC50 (HSV-1 (KOS); [11]): > 3000 nM

Molecule: 5296 (GTTGGAGACCGGGGTTGGNG; DNA, [I] at 19, backbone not given here) [compound 5296]
- EC50 (HSV-1 (KOS); [11]): 800 nM

Molecule: 5297 (CACGAAAGGCATGACCGNGGC; DNA, [I] at 18, backbone not given here) [compound 5297]
- EC50 (HSV-1 (KOS); [11]): > 3000 nM

Molecule: 5309 (GTTGGAGACCGNGTTGGGG; inosine substitution, further chemistry not given here) [compound 5309]
- EC50 (HSV-1 (KOS); [11]): > 3000 nM

Molecule: 5310 (GTTGGAGACCGGGGTTGGGN; DNA, [I] at 20, backbone not given here) [compound 5310]
- EC50 (HSV-1 (KOS); [11]): 400 nM

Molecule: 5366 (TTGGGGTTGGGGTTGGGGTTGGGGG; phosphorothioate, further chemistry not given here) [compound 5366]
- TC50 [1]: 22 µM
- TI (TC50/IC50) (HIV-1IIIB [3]): 220

Molecule: 5544 (GGGTGGGTATAG; phosphorothioate, further chemistry not given here) [compound 5544]
- EC50 (HSV-1 (KOS); [12]): > 3000 nM
- % Inhibition (1 μM) ([4]; Table 5, 1 μM, two separate experiments): 50%

Molecule: 5590 (GGGGTTGGGG; phosphodiester, further chemistry not given here) [compound 5590]
- TC50 [1]: 20 µM
- EC50 (HSV-1 (KOS); [12]): > 3000 nM
- IC50 (HIV-1IIIB [3]): > 25000 nM

Molecule: 5649 (TTGGGGTTGGGGTTGGGGTTGGGG; phosphodiester, further chemistry not given here) [compound 5649]
- TI (TC50/IC50) (HIV-1IIIB [2]): 300
- EC50 (HSV-1 (KOS); [12]): > 3000 nM

Molecule: 5650 (TTGGGGTTGGGGTTGGGGTT; phosphodiester, further chemistry not given here) [compound 5650]
- TC50 [1]: 7.6 µM
- TI (TC50/IC50) (HIV-1IIIB [2]): 12
- EC50 (HSV-1 (KOS); [12]): > 3000 nM
- IC50 (HIV-1IIIB [3]): 640 nM

Molecule: 5651 (TTGGGGTTGGGGTTGGGGTTGGGG; phosphorothioate, further chemistry not given here) [compound 5651]
- TC50 [1]: 19, 19 μM
- TI (TC50/IC50) (HIV-1IIIB [2]): 175

Molecule: 5652 (TTGGGGTTGGGGTTGGGGTT; phosphorothioate, further chemistry not given here) [compound 5652]
- TI (TC50/IC50) (HIV-1IIIB [3]): 227

Molecule: 5653 (TTGGGGTTGGGGTTGGGG; phosphorothioate, further chemistry not given here) [compound 5653]
- TC50 [1]: 27 µM
- IC50 (HIV-1IIIB [3]): 190 nM

Molecule: 5666 (DNA TTGGGGTTGGGGTTGGGG; phosphodiester, further chemistry not given here) [compound 5666]
- TI (TC50/IC50) (HIV-1IIIB [2]): 100

Molecule: 5667 (DNA TTGGGGTTGGGGTT; unmodified DNA) [compound 5667]
- TC50 [1]: 5.6 µM
- IC50 (HIV-1IIIB [3]): > 22000 nM

Molecule: 5668 (DNA TTGGGGTTGGGG; unmodified DNA) [compound 5668]
- TC50 [1]: 5.2 µM
- IC50 (HIV-1IIIB [3]): > 21000 nM

Molecule: 5669 (DNA GGGGTTGGGGTTGGGG; unmodified DNA) [compound 5669]
- TC50 [1]: 9.6 µM
- TI (TC50/IC50) (HIV-1IIIB [2]): 9
- IC50 (HIV-1IIIB [3]): 1200 nM

Molecule: 5670 (DNA GGGGTTGGGGTTGGGGTTGGGG; unmodified DNA) [compound 5670]
- TC50 [1]: 15 µM
- EC50 (HSV-1 (KOS); [12]): > 3000 nM

Molecule: 5674 (DNA dT*dT*dG*dG*dG*dG*dT*dT*dG*dG*dG*dG) [compound 5674]
- TC50 [1]: >200 µM

Molecule: 5675 (DNA dT*dT*dG*dG*dG*dG*dT*dT*dG*dG*dG*dG*dT*dT) [compound 5675]
- TC50 [1]: 14 µM
- TI (TC50/IC50) (HIV-1IIIB [2]): 36

Molecule: 5676 (DNA dG*dG*dG*dG*dT*dT*dG*dG*dG*dG*dT*dT*dG*dG*dG*dG) [compound 5676]
- TI (TC50/IC50) (HIV-1IIIB [2]): 114

Molecule: 5677 (DNA dG*dG*dG*dG*dT*dT*dG*dG*dG*dG*dT*dT*dG*dG*dG*dG*dT*dT*dG*dG*dG*dG) [compound 5677]
- TI (TC50/IC50) (HIV-1IIIB [2]): 146

Molecule: Nc1nc2c(ncn2COCCO)c(=O)[nH]1 [ACV, 9-(2-hydroxyethoxymethyl) guanine, reference compound]
- activity against HSV-1 (HSV-1 (KOS); FIG. 8 and FIG. 9): more active than a control oligonucleotide, ISIS 3383

Molecule: GCCGAGGTCCATGTCGTACGC (GCCGAGGTCCATGTCGTACGC; chemistry not given here) [ISIS 1082, negative control oligonucleotide complementary to HSV UL13 translation initiation codon; has no runs of G, reference compound]
- EC50 (HSV-1 (KOS); b150, duplicate experiments): 2500 nM and 1800 nM

Molecule: GG GG [ISIS 4803]
- % tetramer [5]: 29* %

Molecule: GGGGGGTG [ISIS 5684]
- ED50 (HSV-1 (KOS); b190): approximately 0.6 μM

Molecule: GsGsGsGsT
- IC50 (HIV-1 [6]; Table 16, acute HIV assay): 1.4 µM
- % tetramer [5]: 61* %

Molecule: GsGsGsGsTsT
- IC50 (HIV-1 [6]; Table 16, acute HIV assay): 0.5 µM
- % tetramer [5]: 94* %

Molecule: T2A4T2-biotin
- Kd (gp120): ~260000 nM

Molecule: TGG GG [ISIS 5544]
- IC50 (HIV-1 [6]; Table 16, acute HIV assay): inactive
- inhibition of enzyme activity ([4]; 1 μM): 50%
- inhibition of enzyme activity ([4]; 3 μM): complete inhibition
- % tetramer [5]: 57* %

Molecule: TGTGTGTG [ISIS 6071, reference compound]
- IC50 (HIV-1 [6]; Table 16, acute HIV assay): inactive
- % tetramer [5]: 0%
- inhibition of binding (HIV-1 [7]): showed inhibition of binding

Molecule: TT GGGG TT [ISIS 5320]
- effect on binding of antibodies to human CD44 (human CD44): Neither oligonucleotide significantly decreased binding
- IC50 (HIV-1 [6]; Table 15, μM of oligonucleotide strand to inhibit 50% of virus-induced cell killing, error ±0.1 μM): 0.3 µM
- IC50 (HIV-1 [6]; Table 16, acute HIV assay, listed as TsTsGsGsGsGsTsT): 0.3 µM
- antiviral activity after heat denaturation of the tetrameric complex (HIV-1 [6]; data not shown): loss of activity
- effect on binding of antisera to gp120 (V3 loop region of gp120): interferes with binding of antisera directed against the V3 loop region of gp120
- IC50 (HIV-1 [7]; read-out: concentration reducing virus production to 50% of control, tetramer form, infection after 48 hours, data not shown): ~400 nM
- effect on binding of antibodies to CD4 (CD4 [8]): Neither oligonucleotide significantly decreased binding
- production of intracellular PCR-amplifiable DNA (HIV): inhibited production of intracellular PCR-amplifiable DNA
- effect on chronically infected cells [9]: had no effect

Molecule: TT GGGG [ISIS 5739]
- IC50 (HIV-1 [6]; Table 16, acute HIV assay): 13 µM
- % tetramer [5]: 40* %

Molecule: ToToGsGsGsGoToT
- IC50 (HIV-1 [6]; Table 16, acute HIV assay): inactive
- % tetramer [5]: 72%

Molecule: ToTsGoGsGoGsToT
- IC50 (HIV-1 [6]; Table 16, acute HIV assay): inactive
- % tetramer [5]: 9%

Molecule: TsToGsGoGsGoTsT
- IC50 (HIV-1 [6]; Table 16, acute HIV assay): 5.3 µM
- % tetramer [5]: 83%

Molecule: TsTsGoGoGoGsTsT
- IC50 (HIV-1 [6]; Table 16, acute HIV assay): 5 µM
- % tetramer [5]: 80%

Molecule: TsTsGsGsGsGsTsT [TsTsGsGsGsGsTsT heat denatured]
- IC50 (HIV-1 [6]; Table 16, acute HIV assay): inactive
- % tetramer [5]: 0%
- inhibition of binding (HIV-1 [7]): showed inhibition of binding

Molecule: TsTsGsGsGsGsTsTsB
- Kd (CD4 [10]): ~25000 nM
- IC50 (HIV-1 [6]; Table 16, acute HIV assay): 0.4 µM
- % tetramer [5]: 85%

Molecule: dextran sulfate
- effect on gp120/CD4 interaction (CD4/gp120 interaction): does not prevent the gp120/CD4 interaction

Molecule: α-ToToGoGoGoGoToT
- IC50 (HIV-1 [6]; Table 16, acute HIV assay): inactive
- % tetramer [5]: 97%

Molecule: α-TsTsGsGsGsGsTsT
- IC50 (HIV-1 [6]; Table 16, acute HIV assay): 0.5 µM
- % tetramer [5]: 98%
